Reference: article PMC6581955, “Rosmarinic acid suppresses Alzheimer’s disease development by reducing amyloid β aggregation by increasing monoamine secretion” (Scientific Reports, 2019)

Tests used:
[1] = Side effects in the animal study; assay type: in vivo, mice; settings: RA-fed animals
[2] = cited from earlier work
Aβ [3] = system: Aβ; set-up: method as in PMID 14994335; settings: screen of five polyphenols; cited from earlier work
[4] = system: brain capillary endothelial cell monolayers; experiment: BBB permeability in an in vitro BBB model (BBB Kit); assay type: in vitro ADME; settings: caffeine positive, Na-F negative control, n = 3
Procedure: We measured the BBB permeability by using the BBB Kit (PharmaCo-Cell, Nagasaki, Japan) according to the manufacturer’s instructions. CA was used as a positive control, and Na-F as a negative control. The concentration of the assay buffer on the brain parenchyma side was measured by HPLC–ECD as per the in vivo RA transferability test. Na-F was measured with Ex/Em = 485/538 nm using a FlexStarion 3-fluorescence-plate reader (Molecular Devices, CA, USA). The permeability coefficient (Pe: × 10^−6 cm/sec) was calculated as follows using the concentration of the test substance added to the luminal side ([C]Luminal), the concentration of test compound that passed through to the […] every 20 minutes ([C]Abluminal), and the amount on the brain parenchyma side (VAbluminal). Volume(µL)=([C]Abluminal×VAbluminal)/[C]Luminal The amount of permeation was plotted every 20 min and the value of the slope of the formula of the quantity transmitted for each time was used as the permeation index (PS). […] 1/PSendothelial=1/PStotal−1/PSmembrane Pe was calculated by dividing PSendothelial by the insert surface area (A). […]

[5] = In vivo RA transferability test (HPLC-ECD of plasma and brain); set-up: species or system C57BL/6 J mice; settings: C57BL/6 J, mouse, plasma, oral, 0.5 % (fed), mice fed 0.5% RA for 7 weeks, mean ± S.E. (n = 5)
Procedure: The blood and whole brain were collected under isoflurane anesthesia after 7 weeks of breeding (C and RA group). The blood samples were centrifuged at 1,800 × g at 4 °C for 10 min to obtain EDTA plasma.
Phosphate-buffered saline (PBS) (1 mL/0.1 g of brain tissue) was added to the brain tissue sample and homogenized with a Polytron homogenizer. After that, the samples were centrifuged at 4,000 × g at 4 °C for 40 min to obtain the brain extract supernatant. The plasma and brain extract were processed as follows. In the β-glucuronidase-treated group, 50 μL of plasma or brain extract was suspended in 50 μL of 200 U β-glucuronidase and 0.1 M sodium acetate buffer (pH 5.0). Then the samples were incubated at 37 °C for 45 min. In the non-treated group, 50 μL of plasma or brain extract were suspended in 50 μL of 0.1 M sodium acetate buffer and incubated as above. After incubation, 200 μL of 0.83 M methyl acetate buffer was added to the samples of both groups, the protein was precipitated by vortex stirring for 1 minute, treated with sonication for 1 minute, and centrifuged at 8,500 × g at 4 °C for 5 min. The supernatants were recovered and passed through 0.45 μm filters, and the concentrations of RA and metabolites in the filtrates were measured using an Ultimate 3000 HPLC-ECD (Thermo Fisher scientific, Massachusetts, US). The conditions of chromatography were the same as the previous report.

DA in brain sections = experiment: DA imaging by IMS (MALDI-TOFMS); assay type: in vivo, C57BL/6 J mice; settings: 0.5% RA diet for 10 days
Procedure: Because it has been reported that isoflurane anesthesia increases the release of DA in rat striatum, we adopted decapitation after cervical dislocation without anesthesia to euthanize the mice after 10 days of breeding (C and RA group). The left hemisphere of the brain of each mouse was collected, then sagittal sections 8 μm thick were prepared using a cryostat (CM-3050 S; LEICA, Germany) at −25 °C and mounted on a glass slide coated with indium tin oxide. Sections were sprayed with DPP and incubated at 40 °C for 30 min, and then sprayed with 2,5-dihydroxybenzoic acid to improve ionization efficiency. The surface of the sections was ionized by irradiation with laser light at 200 μm intervals using an Ultrafle Xtreme (matrix-assisted laser desorption/ionization time-of-flight mass spectrometer) (MALDI-TOFMS) (Bruker Daltonik GmbH, Bremen, Germany). The peak of DPP-derivatized DA (m/z: 368.2), which constitutes a complex of the target substance (DA) and DPP, was measured two-dimensionally. Only DA that could be derivatized was measured.

brain monoamines = experiment: Monoamine concentration in the whole brain of mice fed RA for 7 weeks (HPLC-ECD); assay type: in vivo, C57BL/6 J mice; settings: 0.5% RA diet for 7 weeks vs control
Procedure: The whole brain was collected under isoflurane anesthesia after 7 weeks of breeding (C and RA group). Buffer (2.0 mM NaHSO3, 20 μM EDTA • 2Na, 0.10 M HClO4; 1 mL/0.1 g of brain tissue) was added to the brain sample, the mixture was then homogenized with a Polytron and centrifuged at 12,000 × g at 4 °C for 5 min to obtain a brain extract supernatant. The supernatants were recovered, passed through 0.45 μm filters, and the concentration of monoamines in the filtrates was measured using HPLC-ECD. The conditions of chromatography were given in Supplemental Methods.

Aβ [6] = system: Aβ; set-up: method as in PMID 19893028; settings: Tg2576 mice, cited from earlier work
[7] = system: monoamines in cerebral cortex, striatum, hippocampus; experiment: Monoamine concentration in brain regions after single dose or 11 days of RA; assay type: in vivo, mice
Procedure: In order to examine the effect of a single dose of RA, we conducted intragastric administration of RA at 0.1 m mol/kgBW to wild type mice and measured the monoamine concentration in three brain regions (cerebral cortex, striatum, and hippocampus) after 0, 60, and 240 min. […] Therefore, we extended the RA administration period to 11 days.

[8] = system: mRNA of DA-metabolizing enzymes, Tieg2, Tgf-β1; experiment: Relative mRNA measurement in cerebral cortex, SN and VTA by qRT-PCR; assay type: in vivo, C57BL/6 J mice
Excerpt: The mice were divided into two groups, C and RA, as mentioned above, and fed with the appropriate diet for 11 days. We collected SN and VTA from the brain according to methods previously described. In brief, we collected the whole brain, washed it with saline, and obtained 1 mm thick coronal sections using a brain slicer BS-Z 2000C (Muromachi Kikai Co., Ltd., Tokyo, Japan). Referring to the Allen Brain Atlas[55], we acquired the SN and VTA from the relevant sections.
Total RNA was extracted from SN, and VTA using TRIzol (Invitrogen) according to the manufacturer’s manual. After checking the quality of total RNA, we synthesized cDNA using PrimeScript^TM RT Master Mix (Perfect Real Time) (TaKaRa Bio, Shiga, Japan). The primer sequences and conditions for our qRT–PCR are given in Suppl. Table S1 and Supplemental Methods. Results are expressed as mean of fold change compared with control condition (SE as error bars, n = 5, 6). All samples were tested in triplicate and the data were normalized to GAPDH (cerebral cortex) or β-actin (SN and VTA).

[9] = 0.5% RA diet 11 days vs controls, P < 0.05
[10] = RA diet 11 days, normalized to β-actin

Compound: O=C(/C=C/c1ccc(O)c(O)c1)O[C@H](Cc1ccc(O)c(O)c1)C(=O)O [RA, rosmarinic acid]
- side effects including nausea and vomiting [1]: not observed
- intestinal permeability ([2]; orally ingested polyphenols): ~1%
- intestinal permeability, of intake volume ([2]; previous in vitro study): < 1%
- Aβ aggregation in vitro (Aβ [3]): significantly inhibited
- transendothelial permeability (Pe) [4]: lowest value
- concentration at 7 weeks ([5]; β-glucuronidase not reacted): 590 ± 220 nM
- concentration at 7 weeks ([5]; β-glucuronidase reacted): 750 ± 150 nM
- DPP-derivatized DA signals in cerebral cortex and striatum (DA in brain sections): more strongly than in control group
- DA concentration in whole brain (brain monoamines): changed but not significantly
- DOPAC concentration in whole brain (brain monoamines): significantly increased
- L-DOPA concentration in whole brain (brain monoamines): significantly increased
- NE concentration in whole brain (brain monoamines): changed but not significantly
- Aβ deposition in the brain (immunohistochemistry) (Aβ [6]; RA diet for 10 months): significantly decreased
- Aβ aggregation inhibitory activity in the brain, among five polyphenols (Aβ [6]): highest
- DOPAC level in cerebral cortex [7, 9]: increased significantly
- L-DOPA level in cerebral cortex [7, 9]: increased significantly
- NE level in cerebral cortex [7, 9]: increased significantly
- DA level in cerebral cortex ([7]; 0.5% RA diet 11 days vs controls, P = 0.068): somewhat increased
- monoamine concentration in striatum and hippocampus ([7]; RA diet 11 days, data not shown): not significantly changed
- monoamine concentration in cerebral cortex, striatum and hippocampus ([7]; single intragastric dose 0.1 m mol/kgBW, 0, 60, 240 min, data not shown): no significant differences
- Tgf-β1 gene expression in SN and VTA ([8]; RA diet 11 days): significantly downregulated
- Tieg2 gene expression in SN and VTA ([8]; RA diet 11 days vs controls): significantly decreased
- Th mRNA level in cerebral cortex ([8]; RA diet 11 days, P = 0.13): somewhat increased
- mRNA levels of DA-metabolizing enzymes in cerebral cortex ([8]; RA diet 11 days, normalized to GAPDH): no significant difference
- Comt mRNA expression in SN [8, 10]: significantly downregulated
- Maob mRNA expression in SN [8, 10]: significantly downregulated
- Maob mRNA expression in VTA [8, 10]: significantly downregulated
